Like-named read-outs stand apart in the source and are kept apart here. Values belong to the molecule of their own block, whether it stands above or below them.
How the values were obtained:
S. aureus = assay: MIC by broth dilution, S. aureus; format: cell-based; details: for selectivity for Gram positive microbes over Gram negative microbes, in words: S. aureus vs A. baumannii; for MIC: Staphylococcus aureus, Mueller-Hinton broth
Procedure, shortened: (§1)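 Broth dilution in Mueller-Hinton broth with 2-fold compound steps over 1–256 μg/mL (final) and 5×10^5 CFU/mL inoculum, incubated overnight at 37 °C. The MIC is the lowest concentration without visible turbidity, from at least biological duplicates of technical triplicates. A parallel series was supplemented with 5% (final) human plasma.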

A. baumannii [1] = assay: MIC by broth dilution, A. baumannii; format: cell-based; details: Acinetobacter baumannii, Mueller-Hinton broth
Procedure, shortened: as §1

A. baumannii [2] = assay: MIC by broth dilution in presence of 5% human plasma (esterases), A. baumannii; format: cell-based; details: for Δ MIC A. baumannii + human plasma: broth supplemented with 5% human plasma (esterases) vs no plasma
Protocol: The antibacterial efficacy of ammonium compounds in the presence of human plasma was assessed. Minimum inhibitory concentrations (MICs) were determined by broth dilution method. Dilutions of each compound, ranging from 1 μg/mL to 256 μg/mL (final concentrations) were prepared in Mueller-Hinton broth. For the plasma containing samples, compound dilutions were made in Mueller-Hinton broth and supplemented with 5% (final %) human plasma (esterases). Compound dilutions were added to wells of a 96-well plate, with the concentration of the compound increasing 2-fold by row. Each well contained 5×10^5 CFU/mL of target bacterium in a total volume of 100 μL. Plates were incubated overnight at 37° C. The following day, plates were evaluated for a visual change in growth to determine the MIC. The concentration value corresponding to the first row that no longer had visible bacterial growth, as evaluated by turbidity in the wells, was recorded as the MIC. MIC values were representative of at least biological duplicates, each made up of technical triplicates.

human red blood cell = assay: In vitro hemolysis assay; format: cell-based; details: for % hemolysis at 16 μg/ml / % hemolysis at 32 μg/ml: human RBCs, 37° C., 1 hour; for hemolysis as compared to otilonium bromide (11), in words: 16 and 32 μg/mL; for reduction in hemolysis as compared to otilonium bromide (11): at 32 μg/mL
Protocol: The hemolytic potential of ammonium compounds were assessed in vitro. A human red blood cell solution (RBC) was prepared by washing 400 μL of fresh RBCs twice with 7 mL of 1×PBS (pH 7.4) by centrifugation at 4° C., 2500 rpm for 10 minutes. The precipitates were then resuspended in 4 mL of 1×PBS. Hemolysis testing was performed by mixing 500 μL of freshly prepared test compound solutions at a final concentration of both 16 μg/mL and 32 μg/mL in 1×PBS with 400 μL of the washed human RBCs. Two control samples were prepared by separately mixing 400 μL of washed RBCs with 500 μL of 1×PBS (negative control) and 1% Triton X-100 (w/v). After incubation in a water bath at 37° C. for 1 hour, the samples were centrifuged at 2500 rpm for 10 minutes. 300 μL of the supernatant were collected for measurement in a 96-well plate. The release of hemoglobin was assessed by measuring the absorbance of the samples at 540 nm using 1×PBS as the blank. Hemolysis percent was calculated using Equation 1: […]

[3] = tested on: enterotoxigenic Escherichia coli (ETEC); assay: Mouse assay, oral inoculation with ETEC, viable bacteria in intestines; format: in vivo; details: neonate CD-1 mice, 10^7 CFU oral, compound co-administered at 1 mg/kg, intestines harvested after 4 hours
Protocol: (§2) Mouse assays were used to evaluate the in vivo activity of compound 95. Male and female neonate CD-1 mice were orally innoculated with 10^7 colony forming units of enterotoxigenic Escherichia coli (ETEC) (FIG. 2A) or vancomycin-resistant enterococcus (VRE) (FIG. 2B) and co-administered compound 95 at 1 mg/kg. Intestines were harvested after 4 hours and plated to determine viable bacteria.

[4] = tested on: vancomycin-resistant enterococcus (VRE); assay: Mouse assay, oral inoculation with VRE, viable bacteria in intestines; format: in vivo; details: neonate CD-1 mice, 10^7 CFU oral, compound co-administered at 1 mg/kg, intestines harvested after 4 hours
Protocol: as §2

[5] = no plasma, Table 2, read-out: MIC (μg/ml) S. aureus
[6] = overnight 37° C., Table 1, read-out: MIC (μg/mL) S. aureus
[7] = no plasma, Table 2, read-out: MIC (μg/ml) A. baumannii
[8] = overnight 37° C., Table 1, read-out: MIC (μg/mL) A. baumannii

MIC (S. aureus; [5]): < 3 µg/mL | MIC (S. aureus; [6]): < 3 µg/mL | MIC (A. baumannii [1]; [7]): 3 to 30 µg/mL | MIC (A. baumannii [1]; [8]): 3 to 30 µg/mL | Δ MIC A. baumannii + human plasma (A. baumannii [2]): 8X
SMILES: CCCCCCOc1ccccc1C(=O)Nc1ccc(C(=O)OCC[N+](CC)(CC)CCCCC)cc1.[Br-] [Compound 68, N,N-Diethyl-N-(2-((4-(2-(hexyloxy)benzamido)benzoyl)oxy)ethyl)pentan-1-aminium bromide]
antimicrobial activity against Gram positive S. aureus relative to otilonium bromide, in words (S. aureus): comparable or better than the activity of otilonium bromide | selectivity for Gram positive microbes over Gram negative microbes, in words (S. aureus): improved selective for Gram positive microbes over Gram negative microbes | stability in the presence of enzymes that are found in the gut, compared with otilonium bromide (11), in words (A. baumannii [2]; 5% human plasma): better stability than otilonium bromide | % hemolysis at 16 μg/ml (human red blood cell): 2% | % hemolysis at 32 μg/ml (human red blood cell): 5% | hemolysis as compared to otilonium bromide (11), in words (human red blood cell): reduced hemolysis as compared to otilonium bromide | reduction in hemolysis as compared to otilonium bromide (11) (human red blood cell): 94%

MIC (S. aureus; [5]): 3 to 30 µg/mL | MIC (S. aureus; [6]): 3 to 30 µg/mL | MIC (A. baumannii [1]; [7]): 3 to 30 µg/mL | MIC (A. baumannii [1]; [8]): 3 to 30 µg/mL | Δ MIC A. baumannii + human plasma (A. baumannii [2]): 2X
SMILES: CCCCCCCOc1cc(F)ccc1C(=O)Nc1ccc(S(=O)(=O)NCC[N+](CC)(CC)CCCC)cc1.[Br-] [Compound 95, N,N-Diethyl-N-(2-((4-(4-fluoro-2-(heptyloxy)benzamido)phenyl)sulfonamido)-ethyl)butan-1-aminium bromide]
antimicrobial activity against Gram positive S. aureus relative to otilonium bromide, in words (S. aureus): comparable or better than the activity of otilonium bromide | stability in the presence of enzymes that are found in the gut, compared with otilonium bromide (11), in words (A. baumannii [2]; 5% human plasma): better stability than otilonium bromide | increase in stability (A. baumannii [2]; 5% human plasma, vs otilonium bromide (11)): four- to eight-fold | % hemolysis at 16 μg/ml (human red blood cell): 3% | % hemolysis at 32 μg/ml (human red blood cell): 14% | hemolysis as compared to otilonium bromide (11), in words (human red blood cell): reduced hemolysis as compared to otilonium bromide | reduction in hemolysis as compared to otilonium bromide (11) (human red blood cell): 85% | viability and colonization of ETEC in intestines [3]: significantly decreased viablity and colonization | viability and colonization of VRE in intestines [4]: significantly decreased viablity and colonization

MIC (S. aureus; [6]): 3 to 30 µg/mL | MIC (A. baumannii [1]; [8]): > 30 µg/mL
SMILES: CCCCCCCCOc1ccccc1C(=O)Nc1ccc(C(=O)N(C)C2CC[N+](CC)(CCC)CC2)cc1.[Br-] (stereo not drawn) [Compound 74, 1-Ethyl-4-(N-methyl-4-(2-(octyloxy)benzamido)benzamido)-1-propylpiperidin-1-ium bromide]

MIC (S. aureus; [6]): < 3 µg/mL | MIC (A. baumannii [1]; [8]): 3 to 30 µg/mL
SMILES: CCCCCCCCOc1ccccc1C(=O)Nc1ccc(C(=O)OCC[N+](CC)(CC)CCC(C)(C)C)cc1.[Br-] [Compound 47, N,N-Diethyl-3,3-dimethyl-N-(2-((4-(2-(octyloxy)benzamido)benzoyl)oxy)ethyl)-butan-1-aminium bromide]

MIC (S. aureus; [6]): 3 to 30 µg/mL | MIC (A. baumannii [1]; [8]): > 30 µg/mL
SMILES: CCCCCCCOc1ccccc1C(=O)Nc1ccc(C(=O)OCC[N+](C)(CC)CC)cc1.[Br-] [Compound 22, N,N-Diethyl-2-((4-(2-(heptyloxy)benzamido)benzoyl)oxy)-N-methylethan-1-aminium bromide]

MIC (S. aureus; [6]): 3 to 30 µg/mL | MIC (A. baumannii [1]; [8]): > 30 µg/mL
SMILES: CCCCCCCCOc1c(F)cccc1C(=O)Nc1ccc(C(=O)OCC[N+](C)(CC)CC)cc1.[Br-] [Compound 89, N,N-Diethyl-2-((4-(3-fluoro-2-(octyloxy)benzamido)benzoyl)oxy)-N-methylethan-1-aminium bromide]

MIC (S. aureus; [6]): < 3 µg/mL | MIC (A. baumannii [1]; [8]): > 30 µg/mL
SMILES: CCCCCCCCOc1ccccc1C(=O)Nc1ccc(C(=O)OCC[N+](CC)(CC)Cc2ccc(C(=O)OC)cc2)cc1.[Br-] [Compound 51, N,N-Diethyl-N-(4-(methoxycarbonyl)benzyl)-2-((4-(2-(octyloxy)benzamido)-benzoyl)oxy)ethan-1-aminium bromide]

MIC (S. aureus; [6]): > 30 µg/mL | MIC (A. baumannii [1]; [8]): > 30 µg/mL
SMILES: CCCCCCCCOc1ccc(C(=O)Nc2ccc(C(=O)OCC[N+](C)(CC)CC)cc2)c(OCCCCCCCC)c1.[Br-] [Compound 15, 2-((4-(2,4-Bis(octyloxy)benzamido)benzoyl)oxy)-N,N-diethyl-N-methylethan-1-aminium bromide]

MIC (S. aureus; [6]): 3 to 30 µg/mL | MIC (A. baumannii [1]; [8]): > 30 µg/mL
SMILES: CC[N+](C)(CC)CCOC(=O)c1ccc(NC(=O)c2ccccc2OCCCCC(C)C)cc1.[Br-] [Compound 97, N,N-Diethyl-N-methyl-2-((4-(2-((5-methylhexyl)oxy)benzamido)benzoyl)oxy)-ethan-1-aminium bromide]

MIC (S. aureus; [6]): 3 to 30 µg/mL | MIC (A. baumannii [1]; [8]): > 30 µg/mL
SMILES: CCCCCCCOc1ccccc1C(=O)Nc1ccc(C(=O)OCC[N+](CC)(CC)CCC)cc1.[Br-] [Compound 69, N,N-Diethyl-N-(2-((4-(2-(heptyloxy)benzamido)benzoyl)oxy)ethyl)propan-1-aminium bromide]

MIC (S. aureus; [6]): 3 to 30 µg/mL | MIC (A. baumannii [1]; [8]): > 30 µg/mL
SMILES: CCCCCCCCOc1ccccc1C(=O)Nc1ccc(C(=O)N(C)CC[N+](CC)(CC)CCC)cc1.[Br-] [Compound 59, N,N-Diethyl-N-(2-(N-methyl-4-(2-(octyloxy)benzamido)benzamido)ethyl)propan-1-aminium bromide]

MIC (S. aureus; [6]): < 3 µg/mL | MIC (A. baumannii [1]; [8]): 3 to 30 µg/mL
SMILES: CCCCCCCOc1ccccc1C(=O)Nc1ccc(C(=O)OCC[N+](CC)(CC)CCCCC)cc1.[Br-] [Compound 71, N,N-Diethyl-N-(2-((4-(2-(heptyloxy)benzamido)benzoyl)oxy)ethyl)pentan-1-aminium bromide]

MIC (S. aureus; [6]): < 3 µg/mL | MIC (A. baumannii [1]; [8]): > 30 µg/mL
SMILES: CCCCCCCCCCC[N+](CC)(CC)CCOC(=O)c1ccc(NC(=O)c2ccccc2OCCCCCCCC)cc1.[Br-] [Compound 49, N,N-Diethyl-N-(2-((4-(2-(octyloxy)benzamido)benzoyl)oxy)ethyl)undecan-1-aminium bromide]

MIC (S. aureus; [5]): < 3 µg/mL | MIC (S. aureus; [6]): 3 to 30 µg/mL | MIC (A. baumannii [1]; [7]): > 30 µg/mL | MIC (A. baumannii [1]; [8]): > 30 µg/mL
SMILES: CCCCCCCCOc1cccc(OCCCCCCCC)c1C(=O)Nc1ccc(C(=O)OCC[N+](C)(CC)CC)cc1.[Br-] [Compound 17, 2-((4-(2,6-Bis(octyloxy)benzamido)benzoyl)oxy)-N,N-diethyl-N-methylethan-1-aminium bromide]
antimicrobial activity against Gram positive S. aureus relative to otilonium bromide, in words (S. aureus): comparable or better than the activity of otilonium bromide | selectivity for Gram positive microbes over Gram negative microbes, in words (S. aureus): virtually complete selectivity for Gram positive microbes | stability in the presence of enzymes that are found in the gut, compared with otilonium bromide (11), in words (A. baumannii [2]; 5% human plasma): better stability than otilonium bromide | % hemolysis at 16 μg/ml (human red blood cell): 59% | % hemolysis at 32 μg/ml (human red blood cell): 90% | hemolysis as compared to otilonium bromide (11), in words (human red blood cell): reduced hemolysis as compared to otilonium bromide

MIC (S. aureus; [6]): 3 to 30 µg/mL | MIC (A. baumannii [1]; [8]): > 30 µg/mL
SMILES: CCCCCCCCOc1ccccc1C(=O)Nc1ccc(C(=O)NC2CC[N+](C)(CCC)CC2)cc1.[Br-] (stereo not drawn) [Compound 72, 1-Methyl-4-(4-(2-(octyloxy)benzamido)benzamido)-1-propylpiperidin-1-ium bromide]

MIC (S. aureus; [6]): 3 to 30 µg/mL | MIC (A. baumannii [1]; [8]): > 30 µg/mL
SMILES: CCCCCCCCCCCCCCOc1ccccc1C(=O)Nc1ccc(C(=O)OCC[N+](C)(CC)CC)cc1.[Br-] [Compound 28, N,N-Diethyl-N-methyl-2-((4-(2-(tetradecyloxy)benzamido)benzoyl)oxy)ethan-1-aminium bromide]

MIC (S. aureus; [5]): 3 to 30 µg/mL | MIC (S. aureus; [6]): 3 to 30 µg/mL | MIC (A. baumannii [1]; [7]): 3 to 30 µg/mL | MIC (A. baumannii [1]; [8]): 3 to 30 µg/mL | Δ MIC A. baumannii + human plasma (A. baumannii [2]): 8X
SMILES: CCCCCCCCOc1ccccc1C(=O)Nc1ccc(C(=O)OCC[N+](C)(C)C)cc1.[Br-] [Compound 11, N,N,N-Trimethyl-2-((4-(2-(octyloxy)benzamido)benzoyl)oxy)ethan-1-aminium bromide]
% hemolysis at 16 μg/ml (human red blood cell): 7% | % hemolysis at 32 μg/ml (human red blood cell): 92%

Reference: patent publication US11952330B2, “Antibiotic ammonium compounds and methods for the treatment of bacterial infections” (priority 2019, dated 2024)
